Measurements as given in the supplement of paper PMC13380429.

Key:
Conditions in all cases: 72 h
Caco-2 [1] = assay: cell viability relative to DMSO; higher = less toxic
Calu-3 [2] = assay: as above
HepG2 [3] = assay: as above
U2OS [4] = assay: as above
Vero E6 [5] = assay: as above
Caco-2 [6] = assay: relative viability EC50 (midpoint between 100% and the lowest measured viability); higher = less toxic
Calu-3 [7] = assay: as above
HepG2 [8] = assay: as above
U2OS [9] = assay: as above
Vero E6 [10] = assay: as above
Caco-2 [11] = assay: drug sensitivity score (DSS) for viability; higher = more toxic; extreme values may be limits of the assay
Calu-3 [12] = assay: as above
HepG2 [13] = assay: as above
U2OS [14] = assay: as above
Vero E6 [15] = assay: as above

SMILES | cell viability (Caco-2 [1]; 1 nM) | cell viability (Caco-2 [1]; 10 nM) | cell viability (Caco-2 [1]; 100 nM) | cell viability (Caco-2 [1]; 1000 nM) | cell viability (Caco-2 [1]; 10000 nM) | cell viability (Calu-3 [2]; 1 nM) | cell viability (Calu-3 [2]; 10 nM) | cell viability (Calu-3 [2]; 100 nM) | cell viability (Calu-3 [2]; 1000 nM) | cell viability (Calu-3 [2]; 10000 nM) | cell viability (HepG2 [3]; 1 nM) | cell viability (HepG2 [3]; 10 nM) | cell viability (HepG2 [3]; 100 nM) | cell viability (HepG2 [3]; 1000 nM) | cell viability (HepG2 [3]; 10000 nM) | cell viability (U2OS [4]; 1 nM) | cell viability (U2OS [4]; 10 nM) | cell viability (U2OS [4]; 100 nM) | cell viability (U2OS [4]; 1000 nM) | cell viability (U2OS [4]; 10000 nM) | cell viability (Vero E6 [5]; 1 nM) | cell viability (Vero E6 [5]; 10 nM) | cell viability (Vero E6 [5]; 100 nM) | cell viability (Vero E6 [5]; 1000 nM) | cell viability (Vero E6 [5]; 10000 nM) | relative viability EC50 (Caco-2 [6]) | relative viability EC50 (Calu-3 [7]) | relative viability EC50 (HepG2 [8]) | relative viability EC50 (U2OS [9]) | relative viability EC50 (Vero E6 [10]) | drug sensitivity score (Caco-2 [11]) | drug sensitivity score (Calu-3 [12]) | drug sensitivity score (HepG2 [13]) | drug sensitivity score (U2OS [14]) | drug sensitivity score (Vero E6 [15])
C[C@@H](O)[C@H]1C(=O)N2C(C(=O)O)=C(S[C@@H]3CN[C@H](CNS(N)(=O)=O)C3)[C@H](C)[C@H]12 [doripenem] | 103% | 98% | 95.2% | 92.3% | 107% | 93.1% | 85.6% | 84% | 95.1% | 94.4% | 104% | 106% | 91% | 99.9% | 96.8% | 95.6% | 94.6% | 95.1% | 95.2% | 94.7% | 104% | 104% | 97.3% | 99.4% | 97.3% | > 10 µM | > 10 µM | > 10 µM | > 10 µM | > 10 µM | 0 | 0 | 0 | 0 | 0
CCN(CC)CCOC(=O)C(c1ccccc1)C1CCCCC1 (stereo not given) [drofenine] | 102% | 96% | 99.3% | 88.2% | 111% | 107% | 110% | 109% | 97.3% | 98% | 93.7% | 87.5% | 86.6% | 86.9% | 87.8% | 102% | 99.1% | 100% | 98.2% | 102% | 103% | 110% | 100% | 107% | 85.8% | > 10 µM | > 10 µM | > 10 µM | > 10 µM | > 10 µM | 0 | 0 | 2.6 | 0 | 0.1
CCCCOc1ccc(C(=O)CCN2CCCCC2)cc1 [dyclonine] | 102% | 108% | 101% | 85.7% | 94% | 96% | 109% | 99.2% | 109% | 102% | 96.6% | 93.3% | 106% | 98% | 94.7% | 99.9% | 103% | 94.3% | 100% | 95.5% | 94.7% | 102% | 99% | 98.6% | 97.3% | > 10 µM | > 10 µM | > 10 µM | > 10 µM | > 10 µM | 1.1 | 0 | 0 | 0 | 0
Nc1nc(=O)n([C@@H]2CS[C@H](CO)O2)cc1F [emtricitabine] | 107% | 108% | 108% | 98.8% | 109% | 104% | 88.8% | 105% | 96.2% | 110% | 104% | 105% | 102% | 97.5% | 85.5% | 97.2% | 104% | 92.1% | 98% | 98.9% | 102% | 102% | 99.5% | 104% | 100% | > 10 µM | > 10 µM | > 10 µM | > 10 µM | > 10 µM | 0 | 0 | 0.4 | 0 | 0
OC[C@@H](O)[C@@H](O)CO [erythritol] | 94.1% | 101% | 97.9% | 91% | 100% | 102% | 97.9% | 112% | 97% | 98.7% | 108% | 116% | 100% | 97.1% | 98.9% | 94.8% | 98.1% | 97.8% | 99.6% | 97.7% | 105% | 102% | 101% | 102% | 98.1% | > 10 µM | > 10 µM | > 10 µM | > 10 µM | > 10 µM | 0 | 0 | 0 | 0 | 0
O=S(=O)(O)c1cc(O)ccc1O [etamsylate] | 89.7% | 100% | 91% | 98.8% | 92.4% | 95.6% | 100% | 106% | 95% | 95.3% | 107% | 105% | 110% | 108% | 97.8% | 92.5% | 98.3% | 95.7% | 99% | 104% | 96.2% | 94.5% | 104% | 94.5% | 106% | > 10 µM | > 10 µM | > 10 µM | > 10 µM | > 10 µM | 0 | 0 | 0 | 0 | 0
CC(C)(Oc1ccc(Cl)cc1)C(=O)OCCOC(=O)c1cccnc1 [etofibrate] | 95.3% | 88.1% | 94% | 92.1% | 105% | 86.8% | 89.6% | 99.1% | 111% | 101% | 92.7% | 106% | 96% | 99.1% | 111% | 101% | 94.1% | 102% | 94.9% | 96.6% | 93.5% | 99.7% | 91.7% | 93.9% | 98.5% | > 10 µM | > 10 µM | > 10 µM | > 10 µM | > 10 µM | 0 | 0 | 0 | 0 | 0
COc1cc2c(Oc3ccc(NC(=O)C4(C(=O)Nc5ccc(F)cc5)CC4)cc3F)ccnc2cc1OCCCN1CCOCC1 [foretinib] | 102% | 98.6% | 97.2% | 70.3% | 5.3% | 99.7% | 98.6% | 96.9% | 84.7% | 5.1% | 94.7% | 95.7% | 101% | 47.8% | 0.1% | 103% | 99.1% | 94.2% | 75.1% | 0% | 102% | 97.9% | 102% | 74.3% | 0.2% | 1.37 µM | 1.92 µM | 0.965 µM | 1.55 µM | 1.52 µM | 9.5 | 7.8 | 11.9 | 9.3 | 9.4
COc1ccccc1OCC(O)CO (stereo not given) [guaifenesin] | 102% | 84.5% | 101% | 91.2% | 99.5% | 99.2% | 105% | 101% | 108% | 95.2% | 100% | 99.8% | 98.7% | 103% | 94.7% | 105% | 98.8% | 97% | 97.2% | 100% | 105% | 106% | 105% | 105% | 99.5% | > 10 µM | > 10 µM | > 10 µM | > 10 µM | > 10 µM | 0 | 0 | 0 | 0 | 0
Nc1nc2c(ncn2[C@@H]2O[C@H](CO)[C@@H](O)[C@H]2O)c(=O)[nH]1 [guanosine] | 85.6% | 102% | 97.8% | 99.9% | 105% | 96% | 102% | 100% | 97% | 101% | 102% | 95.8% | 105% | 100% | 102% | 96.9% | 102% | 98.2% | 100% | 102% | 92.6% | 93.5% | 92.4% | 89.7% | 102% | > 10 µM | > 10 µM | > 10 µM | > 10 µM | > 10 µM | 0 | 0 | 0 | 0 | 0
C=CC(=O)N1CCC[C@@H](n2nc(-c3ccc(Oc4ccccc4)cc3)c3c(N)ncnc32)C1 [ibrutinib] | 103% | 97.3% | 101% | 96.8% | 101% | 100% | 92% | 94.5% | 98.3% | 103% | 97% | 99.1% | 104% | 97.2% | 95.3% | 101% | 100% | 98.6% | 97.6% | 100% | 99.4% | 95.5% | 101% | 98.7% | 92.1% | > 10 µM | > 10 µM | > 10 µM | > 10 µM | > 10 µM | 0 | 0 | 0 | 0 | 0
COc1cc(C(C)=O)ccc1OCCCN1CCC(c2noc3cc(F)ccc23)CC1 [iloperidone] | 90.7% | 98.5% | 84.8% | 94.9% | 82% | 93% | 96.7% | 104% | 104% | 80.5% | 91.9% | 91.3% | 94.4% | 94.2% | 88.6% | 97.9% | 97.5% | 96.6% | 99.6% | 91% | 101% | 96.7% | 94.7% | 98% | 95.6% | > 10 µM | > 10 µM | > 10 µM | > 10 µM | > 10 µM | 0.8 | 0.4 | 0 | 0 | 0
NCCCCCc1c[nH]cn1 [impentamine] | 98% | 97.9% | 91.6% | 97% | 91.3% | 98.3% | 99.4% | 100% | 98.5% | 91.9% | 96.6% | 93.9% | 103% | 97.5% | 101% | 95.7% | 102% | 96.6% | 98.3% | 95.4% | 96.6% | 99.3% | 99.9% | 93.5% | 96.9% | > 10 µM | > 10 µM | > 10 µM | > 10 µM | > 10 µM | 0 | 0 | 0 | 0 | 0
CCC(Cc1c(I)cc(I)c(N)c1I)C(=O)O (stereo not given) [iopanic-acid] | 110% | 107% | 98.8% | 85.8% | 113% | 101% | 91.4% | 96.4% | 102% | 108% | 106% | 112% | 100% | 110% | 99% | 99.7% | 95.6% | 97.9% | 96.7% | 97.1% | 109% | 103% | 104% | 102% | 93% | > 10 µM | > 10 µM | > 10 µM | > 10 µM | > 10 µM | 0 | 0 | 0 | 0 | 0
